Results reported in patent US8772287B2, “Pyrimidinyl and 1,3,5-triazinyl benzimidazole sulfonamides and their use in cancer therapy” (VetDC, Inc., priority 2009, dated 2014).
Counter-ions that a name gives are not always drawn.

| Structure (SMILES) | melting point |
| --- | --- |
| COc1cccc2c1nc(C(F)F)n2-c1nc(-c2ccc(N(C)S(=O)(=O)CCN(C)C)cc2)nc(N2CCOCC2)n1 (as salt: methanesulfonate) [Example 75, N-{4-[4-[2-(difluoromethyl)-4-methoxy-1H-benzimidazol-1-yl]-6-(4-morpholinyl)-1,3,5-triazin-2-yl]phenyl}-2-(dimethylamino)-N-methylethanesulfonamide] | 218 to 220 °C |
| COc1cc(N)cc2c1nc(C(F)F)n2-c1nc(N2CCOCC2)nc(N2CCN(S(=O)(=O)CCN(C)C)CC2)n1 (as salt: methanesulfonate) [Example 84, N-[2-({4-[4-[6-amino-2-(difluoromethyl)-4-methoxy-1H-benzimidazol-1-yl]-6-(4-morpholinyl)-1,3,5-triazin-2-yl]-1-piperazinyl}sulfonyl)ethyl]-N,N-dimethylamine] | 238 °C (dec.) |
| COc1cccc2c1nc(C(F)F)n2-c1nc(-c2ccc(S(=O)(=O)N3CCN(C)CC3)cc2)nc(N2CCOCC2)n1 (as salt: methanesulfonate) [Example 95, 2-(difluoromethyl)-4-methoxy-1-[4-{4-[(4-methyl-1-piperazinyl)sulfonyl]phenyl}-6-(4-morpholinyl)-1,3,5-triazin-2-yl]-1H-benzimidazole] | 289 to 292 °C |
| COc1cccc2c1nc(C(F)F)n2-c1nc(-c2ccc(NS(=O)(=O)CCN(C)C)cc2)nc(N2CCOCC2)n1 (as salt: methanesulfonate) [Example 74, N-{4-[4-[2-(difluoromethyl)-4-methoxy-1H-benzimidazol-1-yl]-6-(4-morpholinyl)-1,3,5-triazin-2-yl]phenyl}-2-(dimethylamino)ethanesulfonamide] | 218 to 220 °C |
| COc1cccc2c1nc(C(F)F)n2-c1nc(N2CCOCC2)c2cnn(C3CCN(S(=O)(=O)CCN(C)C)CC3)c2n1 (as salt: methanesulfonate) [Example 99, N-[2-({4-[6-[2-(difluoromethyl)-4-methoxy-1H-benzimidazol-1-yl]-4-(4-morpholinyl)-1H-pyrazolo[3,4-d]pyrimidin-1-yl]-1-piperidinyl}sulfonyl)ethyl]-N,N-dimethylamine] | 191 to 193 °C |
| COc1cccc2c1nc(C(F)F)n2-c1nc(OC2CCN(S(=O)(=O)CCN3CCOCC3)CC2)nc(N2CCOCC2)n1 (as salt: hydrochloride) [Example 51, 2-(difluoromethyl)-4-methoxy-1-{4-(4-morpholinyl)-6-[(1-{[2-(4-morpholinyl)ethyl]sulfonyl}-4-piperidinyl)oxy]-1,3,5-triazin-2-yl}-1H-benzimidazole] | 255 to 259 °C |

Continued, values first:

| melting point | Structure (SMILES) |
| --- | --- |
| 201 to 203 °C | COc1cccc2c1nc(C(F)F)n2-c1nc(N2CCOCC2)nc(N(C)C2CCCN(S(C)(=O)=O)C2)n1 (stereo not shown) |
| 222 to 225 °C | COc1cccc2c1nc(C(F)F)n2-c1nc(N2CCOCC2)nc(N(CCCN(C)C)C2CCN(S(=O)(=O)CCl)CC2)n1 (as salt: hydrochloride) [Example 59, N^1-{1-[(chloromethyl)sulfonyl]-4-piperidinyl}-N^1-[4-[2-(difluoromethyl)-4-methoxy-1H-benzimidazol-1-yl]-6-(4-morpholinyl)-1,3,5-triazin-2-yl]-N^3,N^3-dimethyl-1,3-propanediamine] |
| 166 to 168 °C | COc1cccc2c1nc(C(F)F)n2-c1nc(N2CCOCC2)nc(N2CCCC(NS(=O)(=O)CCl)C2)n1 (stereo in doubt) [Example 62, chloro-N-{(3S)-1-[4-[2-(difluoromethyl)-4-methoxy-1H-benzimidazol-1-yl]-6-(4-morpholinyl)-1,3,5-triazin-2-yl]-3-piperidinyl}methanesulfonamide] |
| 260 to 263 °C | COc1cccc2c1nc(C(F)F)n2-c1nc(N2CCOCC2)nc(N2CCC(N(CCCN(C)C)S(=O)(=O)CCl)CC2)n1 (as salt: hydrochloride) [Example 60, chloro-N-{1-[4-[2-(difluoromethyl)-4-methoxy-1H-benzimidazol-1-yl]-6-(4-morpholinyl)-1,3,5-triazin-2-yl]-4-piperidinyl}-N-[3-(dimethylamino)propyl]methanesulfonamide] |
